Test results reported in patent US20080287480A1, “Therapeutic Combination Comprising a Nmda Receptors Blocker and a Narcotic Analgesic Substance” (Chiesi Farmaceutici S.p.A., priority 2005, published 2008).
Read-outs that look alike come from different tables or passages of the source.

Tests used:
[1] = tested on: Neuropathic rats; assay: Cold allodynia (chilled metal floor) in chronic constriction injury model of neuropathic pain; assay type: in vivo, rat; details: mean ± s.e.m.; 60 minutes after treatment; 5±1° C. floor; CHF3381 30 mg/kg p.o., morphine 0.1 mg/kg s.c., alone or combined; vehicle 2.90±0.41 s
Method: (§1) The animal model of chronic pain was the same of Example 1.
Neuropathic rats were placed upon a metal floor chilled by an underlying water bath (5±1° C.) for a maximum of 20 s. The animals responded to the contact with the cold surface by lifting the paw on the ligated side off the floor. […] For each set of experiments, animals were pre-screened twice with 20 min interval between tests, in order to select animals displaying clear signs of allodynia, i.e. animals with a paw withdrawal latency on the ligated side of <10 s in both trials. […] The latency to paw withdrawal was then determined at 60 minutes after the administration of vehicle, CHF3381 (30 mg/kg p.o.) alone, morphine (0.1 mg/kg s.c.) alone or their combination.

[2] = tested on: Neuropathic rats; assay: Mechanical hyperalgesia (analgesymeter, Randall method) in chronic constriction injury model of neuropathic pain; assay type: in vivo, rat; details: mean ± s.e.m.; CHF3381 30 mg/kg p.o., morphine 0.1 mg/kg s.c., alone or combined; cut-off 500 g; vehicle 105.7±8.2 g
Method: as §1
Nerve injured rats developed mechanical hyperalgesia […]. Indeed, in these animals the mean paw threshold was decreased to about 110 g on the ligated side compared to the contralateral side (about 350 g; P<0.01).
Mechanical hyperalgesia was assessed in neuropathic rats by using an analgesymeter according to the method reported in Randall L O et al (Arch Int Pharmacodyn Ther 1957, 111, 409-419). Mechanical nociceptive thresholds were evaluated by measuring paw withdrawal thresholds to an increasing pressure stimulus applied to the distal portion of the plantar surface of the hind paw. The site of the stimulation was on area of the hind paw between the pads at the base of the third and forth digit. A cut-off was set at 500 g to prevent any tissue damage and the endpoint was taken as a complete paw withdrawal.

[3] = tested on: Nerve injured rats; assay: Mechanical allodynia (Electronic Von Frey) in chronic constriction injury model of neuropathic pain; assay type: in vivo, rat; details: MPE ± s.e.m.; 60 minutes after administration; CHF3381 30 mg/kg p.o., morphine 0.1 mg/kg s.c., alone or combined; vehicle 0.15±0.06
Excerpt: The animal model of chronic pain was a slight modification of the chronic constriction injury model of neuropathic pain originally described by Bennett G J et al in Pain 1988, 33, 87-107.
Nerve injured rats were placed on an elevated screen in a clear testing chamber and allowed to acclimate to the testing environment before any measurements were taken. The mechanical stimulus was delivered underneath to the plantar surface of the left hind paw of the rat by using the automated testing device Electronic Von Frey.
A steel rod was pushed against the hind paw with ascending force. The ramping of the force went from 0 to 50 g over a 20 s period. When the animal withdrew its hind paw, the mechanical stimulus was automatically withdrawn and the force at which the animal withdrew its paw was recorded. To quantify the mechanical sensitivity of the hind paws, withdrawal thresholds were taken from five consecutive trials with at least 10 s between each trial. The withdrawal threshold was taken to be the mean of the five trials (baseline value). […]
The values are expressed as Maximum Possible Effect (MPE)±s.e.m
The MPE value was calculated as follow: MPE=(PDR−IBR)/(CBR−IBR), where PDR is the post drug response of the ipsilateral paw, IBR is the ipsilateral paw baseline response and CBR is the contralateral paw baseline response. […]

[4] = tested on: mice; details: mean ± s.e.m.
Method: The animal model of inflammatory was a slight modification of the mouse paw formalin test originally described by Wheeler-Aceto H et al in Psychopharmacology 104, 35-44 (1991). Before formalin injection, mice were placed individually into clear plastic cylinders. After adaptation to the cage, 20 μl of 1% formalin was injected into the plantar surface of the left hind paw. Morphine was administered 30 min before formalin injection.
Mice, divided randomly into eight groups (13-16 animals/group), received treatment once daily for 4 days as follows: groups g1 and g2 received saline, 10 ml/kg i.p.; groups g3 and g4 received morphine 50 mg/kg i.p.; group g5 received morphine 50 mg/kg and CHF3381 30 mg/kg i.p.; group g6 received morphine 50 mg/kg and CHF3381 60 mg/kg i.p. On day 5, the mice received saline (g1 and g3), or morphine 6 mg/kg, i.p. (g2, g4, g5 and g6).
The amount of time, in seconds, the animals spent licking and flinching the injected paw from 10 to 40 min after formalin injection, was used as measurement of pain intensity.
The level of significance was set at P<0.05.

CN1CC[C@]23c4c5ccc(O)c4O[C@H]2[C@@H](O)C=C[C@H]3[C@H]1C5 [morphine] was tested, and the “mean paw withdrawal latency (cold allodynia)” value [1] was 5.17 ± 0.86 s, the “Paw withdrawal threshold (mechanical hyperalgesia)” value [2] was 105.8 ± 6.0 g and the “Maximum Possible Effect (MPE) on paw withdrawal threshold to mechanical stimulation” value [3] was 0.21±0.07. For the same compound, the “mean licking time, 10 to 40 min after formalin injection” value ([4]; g2: saline i.p. days 1-4, morphine 6 mg/kg i.p. day 5, saline control g1 119.9±17.0) was 65.9 ± 18.3 s, the “mean licking time, 10 to 40 min after formalin injection” value ([4]; g3: morphine 50 mg/kg i.p. days 1-4, saline i.p. day 5) was 143.9 ± 19.2 s and the “licking time, 10 to 40 min after formalin injection” value ([4]; g4: morphine 50 mg/kg i.p. days 1-4, morphine 6 mg/kg i.p. day 5) was 112.1 ± 13.4 s.
